# Entries after “also recorded” stand apart in the source; their conditions may differ.
# Legend:
# [1] = test system: Cell Line 2 (CHO) expressing Antibody 2; assay: Acidic species variants (WCX-10) of Antibody 2, Cell Line 2 shake flask culture; format: cell-based, Chinese Hamster; conditions: 0.05 and 0.1 g/L; shaker
# Method: Four different recombinant Chinese Hamster Ovary (CHO) cell lines expressing four different recombinant glycoproteins were evaluated in either shaker flask culture, or 3 L laboratory scale bioreactors. Cell Line 1 was genetically engineered to express Antibody 1, Cell Line 2 was genetically engineered to express Antibody 2, Cell Line 3 was genetically engineered to express dual variable domain immunoglobulin 1 (DVD1) and Cell Line 4 was genetically engineered to express dual variable domain immunoglobulin 2 (DVD2).
# Charge Heterogeneity via Weak Cation Exchange Chromatography-Samples were analyzed using an HPLC system equipped with a ProPac WCX-10 analytical column (Thermo Scientific, Sunnyvale, Calif.). Approximately 100 μg of sample was loaded in 6% Buffer B (10 mM sodium phosphate, 500 mM NaCl, pH 5.5) and 94% Buffer A (10 mM sodium phosphate, pH 7.5). The column was run at a flow rate of 1.0 mL/min. […] The protein peaks were measured using UV absorbance at 280 nm as the peaks eluted from the column. […]
# To further evaluate the impact of EGCG on acidic region variants, Antibody 2 and dual variable domain immunoglobulin 1 (DVD1) were examined. Antibody 2 was evaluated in a set of shaker and lab-scale bioreactor experiments with two feed amounts (100% and 50%) as unsupplemented control conditions. […]
# [2] = test system: Cell Line 1 (CHO) expressing Antibody 1; assay: Intracellular ROS by flow cytometry (H2-DCF), Cell Line 1 3 L bioreactor culture; format: cell-based, Chinese Hamster; conditions: bioreactor cultures; Days 6, 8, 12, 15; vs unsupplemented control
# Method: At least 10×10^6 cells were harvested from 3 L bioreactor cultures on Days 6, 8, 12, and 15 after inoculation. Immediately after sampling, the samples were centrifuged and the cell pellet was washed with 1×PBS, and re-suspended in 1 mL of pre-warmed 1×PBS. 2 μL of 2 mM H2-DCF (Life Technologies, Grand Island, N.Y.) in DMSO (Sigma-Aldrich, St. Louis, Mo.) was then added and incubated at 37° C. for 30 minutes and covered from light. The cell suspension was then centrifuged and resuspended in 1×PBS twice to wash the cells and remove residual fluorophore. The cells were then loaded onto a FACSCalibur (Becton Dickinson, Franklin Lakes, N.J.) flow cytometer for the measurement of intracellular ROS at 492-495 nm/517-527 nm excitation/emission.
smiles,measurement,setting,value
"O=C(O[C@@H]1Cc2c(O)cc(O)cc2O[C@@H]1c1cc(O)c(O)c(O)c1)c1cc(O)c(O)c(O)c1 [EGCG, epigallocatechin gallate]",relative reduction of total acidic species content vs unsupplemented control,[1],21%-45%
same,intracellular ROS level,[2],marked reduction of overall ROS level; also recorded: reduced the intracellular ROS level in a dose-dependent fashion

# From patent US9416181B2, “Compositions for cell culture and methods of using the same” (AbbVie Inc., priority 2013, dated 2016)
